Assay results from PubChem BioAssay (NCI).
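Cells were grown in 96-well plates and exposed to each compound for 48 hours at five concentrations; endpoints were interpolated linearly between bracketing concentrations, or set to the highest concentration if not reached. TGI: total growth inhibition.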

What was measured:
Test in all cases: NCI-60 cell line screen, 48 h
HS 578T breast = tested on: HS 578T breast
SK-OV-3 ovarian = tested on: SK-OV-3 ovarian
SK-MEL-5 melanoma = tested on: SK-MEL-5 melanoma
SNB-75 CNS = tested on: SNB-75 CNS
MALME-3M melanoma = tested on: MALME-3M melanoma
SK-MEL-28 melanoma = tested on: SK-MEL-28 melanoma
ACHN renal = tested on: ACHN renal
A549 NSCLC = tested on: A549 NSCLC
CCRF-CEM leukemia = tested on: CCRF-CEM leukemia
NCI/ADR-RES ovarian = tested on: NCI/ADR-RES ovarian
NCI-H23 lung = tested on: NCI-H23 lung
HCT-116 colon = tested on: HCT-116 colon
OVCAR-3 ovarian = tested on: OVCAR-3 ovarian
TK-10 renal = tested on: TK-10 renal
HCT-15 colon = tested on: HCT-15 colon
BT-549 breast = tested on: BT-549 breast
OVCAR-5 ovarian = tested on: OVCAR-5 ovarian
RPMI-8226 leukemia = tested on: RPMI-8226 leukemia
K-562 leukemia = tested on: K-562 leukemia
HL-60(TB) leukemia = tested on: HL-60(TB) leukemia

SMILES | TGI (HS 578T breast) [µM] | TGI (SK-OV-3 ovarian) [µM] | TGI (SK-MEL-5 melanoma) [µM] | TGI (SNB-75 CNS) [µM] | TGI (MALME-3M melanoma) [µM] | TGI (SK-MEL-28 melanoma) [µM] | TGI (ACHN renal) [µM] | TGI (A549 NSCLC) [µM] | TGI (CCRF-CEM leukemia) [µM] | TGI (NCI/ADR-RES ovarian) [µM] | TGI (NCI-H23 lung) [µM] | TGI (HCT-116 colon) [µM] | TGI (OVCAR-3 ovarian) [µM] | TGI (TK-10 renal) [µM] | TGI (HCT-15 colon) [µM] | TGI (BT-549 breast) [µM] | TGI (OVCAR-5 ovarian) [µM] | TGI (RPMI-8226 leukemia) [µM] | TGI (K-562 leukemia) [µM] | TGI (HL-60(TB) leukemia) [µM]
COc1ccc(NC(=O)C(=O)Cc2nc3ccc(C(=O)c4ccccc4)cc3[nH]c2=O)c([N+](=O)[O-])c1 | > 100 | > 100 | 68.8 | 90.2 | > 100 | > 100 | > 100 | > 100 | 61.4 | 33.2 | 65.4 | > 100 | > 100 | > 100 | > 100 | > 100 | > 100 |  |  | 
Nc1[nH]c(=O)[nH]c(=O)c1Cc1cccc(Cl)c1 | > 100 | > 100 |  | > 100 | > 100 | > 100 | > 100 | > 100 |  | > 100 | > 100 | > 100 | > 100 | > 100 | > 100 | > 100 | > 100 | > 100 | > 100 | 
c1cc(CN2CCNCCNCCNCC2)cc(CN2CCNCCNCCNCC2)c1 | > 100 | > 100 | > 100 | > 100 | > 100 | > 100 | > 100 | > 100 |  | > 100 | > 100 | > 100 | > 100 | > 100 |  | > 100 | > 100 | > 100 | > 100 | 
CSc1nc2c3ccccc3ccn2c1C(=O)N/N=C/c1ccccc1 | > 71.6 | 43.7 | > 100 | > 71.2 | > 95.1 | > 100 | 25.3 | > 100 | > 100 | > 71.9 | > 100 | 38.2 | 37.4 |  | > 100 |  | > 100 | > 100 | > 100 | > 100
COc1ccc(C(=O)Oc2c(C#N)sc3c2c(=O)n(-c2ccccc2)c(=S)n3-c2ccccc2)cc1 | 69.6 | > 100 | 58 | > 100 |  | > 100 | > 100 | > 100 | 74 | 52 | 56.3 | 48.9 | 97.4 | 76 | 46.3 |  | 68.5 | 47.1 | > 100 | 49.7
O=c1ccc2ccccc2c2ccccc12 |  | 13 | 12.7 | 10.8 | 22.3 | 16.8 | 12.4 | 31.8 | 11.4 |  | 6.33 | 11.4 | 11.5 | 28 | 5.64 |  | 6.7 | 7.83 | 33.1 | 9.97
Cc1ccc(NC(=O)/C(C#N)=C/c2ccccc2)c(C)c1 |  | > 100 | > 100 | > 100 | > 100 | > 100 | > 100 | > 100 | > 100 |  | > 100 | > 100 | > 100 | > 100 | > 100 |  | > 100 | > 100 | > 100 | > 100
O=C(CC(=O)c1ccccc1)C(=O)Nc1ccc(Cl)cc1 |  | > 100 | > 100 | > 100 | > 100 | > 100 | > 100 | > 100 | > 100 |  | > 100 | > 61.5 | > 100 | > 100 | > 59.7 |  | > 100 | > 100 | > 100 | > 100
COC(=O)CCC(NC(=S)N/N=C(\C)c1cnccn1)C(=O)OC (stereo not given) |  | > 100 | > 100 | > 100 | > 100 | > 100 | > 100 | > 100 | 58.1 |  | > 100 | > 100 | > 100 | > 100 | > 100 |  | 79.7 | > 100 | > 100 | 38.6
CC(C)OC(=O)C1Cc2c([nH]c3ccccc23)C(c2ccccc2)N1 (stereo not given) |  | > 100 | > 100 | 86.5 | 73.4 | > 100 | > 100 | > 100 | > 100 |  | > 100 | > 100 | > 100 | > 100 | > 100 |  | > 100 | > 100 | > 100 | > 100
O=C1/C(=C/c2cccs2)NC(=S)N1CN1CCCCC1 | > 100 | > 100 | > 100 | > 100 | > 100 | > 100 | > 100 | > 100 | > 100 | > 100 | > 100 | > 100 | > 100 | > 100 | > 100 |  | > 100 | > 100 | > 100 | 
C=C(C)CCC1CC=[N+]([O-])OC1C(C)(C)C (stereo not given) | > 100 | > 100 | > 100 | > 100 |  |  | > 100 | 51.4 | 50.5 | 67.3 |  | > 100 | > 100 | > 100 | > 100 |  | > 100 | > 100 | > 100 | 27.2
CN(CCNC(=S)c1cn(C)c2c1ccc1ccccc12)CCNC(=S)c1cn(C)c2c1ccc1ccccc12 | > 100 | > 100 | > 100 | > 100 | > 100 | > 100 | > 100 | > 100 | > 100 | > 100 | > 100 | > 100 | > 100 | > 100 | > 100 | > 100 | > 100 |  | > 100 | 
COc1cccc(C(NC2=NCCC=N2)c2cc3c(cc2O)OCO3)c1O (stereo not given) | 79.7 | > 100 | > 100 | 93.8 | > 100 | > 100 | > 100 | > 100 | 32.8 |  | > 100 | 62.5 | 59.7 | > 100 | 27.7 | 33.3 | > 100 | 50 | 40.6 | 23.3
C=C(CCC=C(C)C)C1CC=C(C)CC1 (stereo not given) | 59 | > 100 | 31 |  | > 100 |  | 33.4 | 39 |  | > 100 | 34.9 | 57.9 | 81.2 | > 100 | 39.6 | > 100 | > 100 |  |  | 
C[C@H]1C[C@H]2[C@@H]3CCC4=CC(=O)C=C[C@]4(C)C3=CC[C@]2(C)[C@@]1(O)C(=O)CO | > 100 | > 100 | > 100 | > 100 | > 100 | > 100 | > 100 | > 100 | > 100 | > 100 | > 100 | > 100 |  | > 100 | > 100 |  | > 100 | > 100 | > 100 | > 100
O/N=C1/CCCc2nonc21 | > 100 | > 100 | > 100 | > 100 | > 100 | > 100 | > 100 | > 100 | > 100 | > 100 | > 100 | > 100 | > 100 | > 100 | > 100 |  | > 100 | > 100 | > 100 | > 100
CC(C)CCC[C@@H](C)[C@H]1CC[C@H]2C3=C[C@H](OS(=O)(=O)O)[C@@]4(O)C[C@@H](O)CC[C@]4(C)[C@@]3(O)CC[C@]12C |  | > 100 | > 100 |  | > 100 | > 100 | > 100 | > 100 | > 100 | > 100 | > 100 | > 100 | > 100 | > 100 | > 100 | > 100 | > 100 | > 100 | > 100 | 
O=C(O)CC12CC3CC(CC(O)(C3)C1)C2 | 59.9 | > 100 | > 100 | > 100 | 77.1 | > 100 | > 100 | > 100 |  | > 100 | > 100 | > 100 | > 100 | > 100 | > 100 | > 100 | > 100 | > 100 | > 100 | 
CCC(C)N1CN(c2ccccc2)C2(CCN(CCCSc3ccc(F)cc3)CC2)C1=O (stereo not given) |  | 19.1 | 4.62 | 25 | 15.8 | 23.8 | 9.76 | 15.1 | 7.22 | 11 | 16 | 10.1 | 7.25 | 11.2 | 4.2 | 6.99 | 7.06 | 5.72 | 6.26 | 17.8
CS(=O)(=O)C1(Br)S(=O)(=O)OCCOS1(=O)=O |  | > 100 | > 100 | > 100 | > 100 | > 100 | > 100 | > 100 | > 100 |  | > 100 | > 100 | > 100 | > 100 | > 100 |  | > 100 | > 100 | > 100 | > 100
O=C(N/N=C(\C1=Nc2ccc(Cl)cc2NC1O)C(O)/C=C/c1ccccc1)c1ccncc1 (stereo not given) |  | > 100 | > 100 | > 100 | > 100 | > 100 | > 100 | > 100 | > 100 |  | > 100 | > 100 | > 100 | > 100 | > 100 |  | > 100 | > 100 | > 100 | > 100
Cc1ccc(/C=C2\Cc3cc(C)c(C)cc3C2=O)c(C(=O)O)c1 | > 100 |  | > 100 | > 100 | > 100 | > 100 | > 100 | > 100 | > 100 |  |  | > 100 | > 100 | > 100 | > 100 | 82.6 |  | > 100 | > 100 | > 100
CCOC(=O)/C=C/C1(CCOC(C)=O)CCCCC1 | > 10 | > 10 | > 10 | > 10 |  | > 10 | > 10 | > 10 | > 10 | > 10 | > 10 | > 10 | > 10 | > 10 | > 10 |  | > 10 | > 10 | > 10 | > 10
COC(=O)c1ccc(C=C(C#N)C#N)cc1 |  | > 100 | 33.1 | 82.5 | 39.6 | 39.9 | 56.9 | > 100 | 51.9 |  | 38.4 | 31.5 | 67.5 | 79.1 | > 100 |  | > 100 | 72.6 | 62.8 | 58.1
C=C1C=CC2(Br)OC3CC(C)(Cl)C(Br)CC13C2(C)C (stereo not given) |  | > 100 | 31 | 77.7 | 34.5 | 54.4 | 56.2 | > 100 | 47.5 |  | 39.2 | 28.5 | 40.8 | > 100 | 51.3 |  | 57.6 | 53.1 | 36.8 | 33.9
